From ChEMBL document CHEMBL4350979, “Dehydrodieugenol B derivatives as antiparasitic agents: Synthesis and biological activity against Trypanosoma cruzi” (Eur J Med Chem, 2019)
The source made the active and inactive calls. No cut-off for these calls is given here. Square brackets hold non-standard residues; d marks the D form. Peptide text beside a SMILES is read from it. * marks the point of attachment. NHCH2CH2OH = OCCN*; For = O=C*

Legend:
Trypanosoma cruzi [1] = assay: Antitrypanosomal activity against Trypanosoma cruzi strain Y trypomastigotes maintained in Rhesus monkey […] cells assessed as decrease in trypomastigotes cell viability incubated for 24 hrs by resazurin dye based colorimetric assay; type: functional, organism-based
Trypanosoma cruzi [2] = assay: Antitrypanosomal activity against Trypanosoma cruzi amastigotes infected in BALB/c mouse peritoneal macrophages assessed as decrease in parasitic load with in the cell incubated for 48 hrs by Giemsa staining based light microscopy; type: functional, organism-based
[3] = Cytotoxicity against mouse NCTC-929 cells assessed as reduction in cell viability incubated for 48 hrs by MTT assay; type: cell-based; conditions: NCTC-929 (L929) cells
[4] = Selectivity index, ratio of CC50 for mouse NCTC-929 cells to IC50 for Trypanosoma cruzi amastigotes infected in BA;B/c mouse peritoneal macrophages; type: toxicity; conditions: read-out: Ratio CC50/IC50
Trypanosoma cruzi [5] = assay: Induction of plasma membrane electric potential depolarization in Trypanosoma cruzi strain Y trypomastigotes at 0.5 mg/ml measured after 60 mins by DiSBAC2(3) dye based flow cytometry; type: functional
Trypanosoma cruzi [6] = assay: Induction of mitochondrial membrane depolarization in Trypanosoma cruzi strain Y trypomastigotes assessed as reduction in mitochondrial membrane potential at 50 uM measured after 120 mins by JC-1 probe based flow cytometry; type: functional, organism-based

| SMILES | IC50 (Trypanosoma cruzi [1]) | IC50 (Trypanosoma cruzi [2]) | CC50 at 48 h [3] | selectivity ratio [4] | Activity (Trypanosoma cruzi [5]) | inhibition (Trypanosoma cruzi [6]) |
| --- | --- | --- | --- | --- | --- | --- |
| O=C(Cn1ccnc1[N+](=O)[O-])NCc1ccccc1 [BENZNIDAZOLE] | 17.7 µM | 5 µM | 191 µM | 38.1 | – | – |
| CC(C)C[C@@H](NC(=O)[C@H](C)NC(=O)CNC(=O)[C@@H](NC=O)C(C)C)C(=O)N[C@@H](C)C(=O)N[C@@H](C(=O)N[C@H](C(=O)N[C@@H](C(=O)N[C@@H](Cc1c[nH]c2ccccc12)C(=O)N[C@H](CC(C)C)C(=O)N[C@@H](Cc1c[nH]c2ccccc12)C(=O)N[C@H](CC(C)C)C(=O)N[C@@H](Cc1c[nH]c2ccccc12)C(=O)N[C@H](CC(C)C)C(=O)N[C@@H](Cc1c[nH]c2ccccc12)C(=O)NCCO)C(C)C)C(C)C)C(C)C [GRAMICIDIN D] (For-VGA[dL]A[dV]V[dV]W[dL]W[dL]W[dL]W-NHCH2CH2OH) | – | – | – | – | 100% | – |
| N#CC(C#N)=NNc1cccc(Cl)c1 | – | – | – | – | – | Active |
| CCCc1ccc(Oc2cc(CCC)cc(OC)c2OC)c(OC)c1 | > 100 µM | 13.3 µM | > 200 µM | > 15.4 | – | – |
| CCCOc1c(OC)cc(CCC)cc1Oc1ccc(CCC)cc1OC | > 100 µM | > 30 µM | > 200 µM | – | – | – |
| COc1cc(CC(C)O)ccc1Oc1cc(CC(C)O)cc(OC)c1OC (stereo unspecified) | > 100 µM | > 30 µM | > 200 µM | – | – | – |
